Source: patent US9642922B2, “Caspase-triggered nano-aggregation probes and methods of use” (The Board of Trustees of the Leland Stanford Junior …, priority 2013, dated 2017)
Numbered stars: 1 amine (or outer) side, 2 acyl side, 3 side chain; on linkers, the order of the positions; unused ones are H or OH. Square brackets hold non-standard residues; d marks the D form. Peptide text beside a SMILES is read from it. * marks the point of attachment. DOTA = O=C(O)CN1CCN(CC(=O)O)CCN(CC(=O)*)CCN(CC(=O)O)CC1; X1 = O=C(C1CSC(c2nc3ccc(N[*:1])cc3s2)=N1)[*:2]; X2 = N#Cc1ccc2cc(OCCCN*)ccc2n1; SEt = CCS*

Assays:
apoptotic HeLa cells = assay: Epifluorescence microscopy of apoptotic HeLa cells labeled with probes; type: cell-based, human
Procedure: After removal of the medium, the cells were incubated with C-SNAF, L-ctrl, or D-ctrl at 2 μM for 24 h. Some cells were first incubated with caspase inhibitor (Z-VAD-fmk, 50 μM) for 30 min, followed by incubating with 2 μM C-SNAF for 24 h. The cells were carefully washed with PBS (1×) three times, and stained with Hoechst 33342 (2 μM) at 37° C. for 30 min. After rinses with PBS (1×) several times, the medium was replaced and the fluorescence images were acquired with DAPI and Cy5.5 filters. The images were processed using the standard CRi Nuance software, analyzed using Image J software package (NIH), and presented at the same intensity scale for comparison.
HeLa cells in #1.5 borosilicate 8-well chambered coverslips (Nunc) were either incubated with C-SNAF (2 μM) alone or co-incubated with DOX (1, 2, and 5 μM) and 2 μM C-SNAF, 2 μM C-SNAF together with caspase inhibitor (Z-VAD-fmk, 50 μM), or control probes D-ctrl and L-ctrl at 2 μM for 24 h. Then the medium was removed, the cells were carefully washed with PBS (1×) three times, and stained with nuclear binding probe Hoechst 33342 (2 μM) at 37° C. for 30 min. After several rinses with PBS (1×), the medium was replaced and the fluorescence images were acquired with DAPI and […] filters.

subcutaneous HeLa tumors = assay: In vivo MR imaging of doxorubicin-treated HeLa tumors; parameters: species or system mouse
Procedure: Evaluation of activatable contrast agent probe 15 for MR imaging of caspase-3 activity in vivo was performed in nude mice bearing subcutaneous HeLa tumors. Tumors were implanted and grown for 10-15 days before receiving intratumoral injections of two doses of 0.2 mg doxorubicin separated by 2 days. Probe 15 or 1-ctrl (19) (0.1 mmol kg^−1) was injected intravenously the day before treatment (baseline) and four days post-treatment (treated). Spin-echo T1-weighted multislice MR images at 1 T were recorded before (pre-contrast) and every 4 min after contrast agent administration (post-contrast), and scanning was carried out for 4 h post-contrast for each mouse. Much brighter MR signals (T1 contrast) were observed 40 and 120 min after injection with probe 15 in treated tumors as compared to that in baseline tumors (FIG. 29A), or in treated tumors with 1-ctrl (19) (FIG. 29B).
In vivo MR imaging was performed on an Aspect M2 1T permanent magnet (Aspect Imaging, Shoham, Israel) using a 40 mm Transmit/Receive mouse body coil. During imaging, the animals were anaesthetized with isofluorane and their respiration and body temperature were constantly monitored. Intravenous contrast injection at 0.1 mmol/kg concentration was administered in a 100 μL volume for every imaging session. Multi-slice (312 μm in-plane, 12 slices with 1 mm thickness) T1-weighted spin echo images (TE/TR=8.9/250 ms, matrix 128×128, FOV=40 mm, NEX=6) were acquired, one before contrast injection and then every 4 min up to 4 h after contrast injection. A 1 mM Dotarem reference tube was inserted in the field of view to enable inter-session variability correction during post-processing. Each animal underwent two imaging session; one before DOX treatment (baseline), and one after DOX treatment (treated).
Acquired MR data were transferred as DICOM images to an offline workstation and ImageJ (NIH) was used for post processing and quantitative image analysis. This consisted of manual segmentation of tumor ROI for each slice, slice-wise normalization of mean tumor signal intensity with the 1 mM Dotarem reference standard to account for inter-session variability, followed by combining these normalized, slice-wise values to generate mean volumetric tumor signal intensities (SI) for each time point.
Signal enhancement was calculated at each time point as the difference between the tumor SI at that time point and the tumor SI in the pre-contrast (t=0) dataset. SE(t)=SI(t)−SI(t=0); for each mouse, for every session
This metric was used to quantify the difference in SE between the baseline (before DOX treatment) session and the treated session for each mouse, as a means to tease out the difference between the two contrast agents, probe 1 and 1-cntl (19) over the time course of the imaging session. % D(t)=[SE(t,treated)−SE(t,baseline)]/SE(t,baseline); for each mouse.

legumain = target: T1, legumain (Homo sapiens, UniProt Q99538); assay: T1 measurement of probe 15 with legumain; type: biochemical; conditions: probe 208 μM, protease 50 nM, 1 T
T1 construct: purchased R&D Systems; host or cells: mouse myeloma cell line
Procedure: The enzyme specificity of probe 15 was studied by measuring the T1 value resulting from probe incubation (208 μM) with any of five relevant subcellular proteases (caspase-3, -7, -9, cathepsin B and legumain) in enzyme buffer. […] The reduced T1 value in solution was inhibited by the caspase inhibitor Z-VAD-fmk (50 μM).
Cathepsin B (human liver; 0.27 U; 7.35×10^−4 mg, Calbiochem) and Legumain (human, recombinant from mouse myeloma cell line; >250 pmol/min/μg; 7.35×10^−4 mg, R&D Systems) were conducted in reaction buffer with 50 mM sodium acetate, 50 mM NaCl, 0.5 mM EDTA and 10 mM TCEP at pH 5.5. The C-SNAF was diluted in the respective enzyme reaction buffer (25 μM, 1 mL) and remained at room temperature for 10 min, to which was added respective enzymes.

HeLa cells = assay: ICP-MS cellular uptake of Gd in HeLa cells; type: cell-based, human; conditions: 250 μM probe, 24 h
Procedure: The cellular uptake of Gd was studied by inductively-coupled plasma mass spectrometry (ICP-MS) analysis of the amount of Gd in viable and apoptotic cells after incubation with probe 15 (50-250 μM) for 24 h. […] This uptake enhancement was inhibitable by Z-VAD-fmk (50 μM), confirming the caspase-3-dependent accumulation of probe 15 in apoptotic cells.

T1 sequence (Q99538 18-323): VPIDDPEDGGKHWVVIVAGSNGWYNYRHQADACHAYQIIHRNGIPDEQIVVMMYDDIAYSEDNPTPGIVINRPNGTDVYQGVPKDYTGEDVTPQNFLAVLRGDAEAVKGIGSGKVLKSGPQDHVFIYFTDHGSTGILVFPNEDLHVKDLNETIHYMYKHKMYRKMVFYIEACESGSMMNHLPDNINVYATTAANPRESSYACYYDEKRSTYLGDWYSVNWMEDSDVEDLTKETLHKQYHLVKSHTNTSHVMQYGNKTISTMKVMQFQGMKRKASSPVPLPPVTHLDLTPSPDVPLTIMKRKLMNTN

| SMILES | cell labeling efficiency (apoptotic HeLa cells; DOX 1 μM) | cell labeling efficiency (apoptotic HeLa cells; DOX 5 μM) | enhancement in cell labeling efficiency (apoptotic HeLa cells; DOX 1 to 5 μM) | cell labeling efficiency (apoptotic HeLa cells; STS 0.5 μM) | cell labeling efficiency (apoptotic HeLa cells; STS 2 μM) | enhancement in cell labeling efficiency (apoptotic HeLa cells; STS 0.5 to 2 μM) | time of maximum SI enhancement in treated tumors after administration (subcutaneous HeLa tumors; 0.1 mmol kg^−1 i.v.) | % difference in tumor SI enhancement, treated versus baseline (subcutaneous HeLa tumors; 20 min) | % difference in tumor SI enhancement, treated versus baseline (subcutaneous HeLa tumors; 120 min) | SI enhancement in treated mice higher than with 1-ctrl (19) (subcutaneous HeLa tumors; 120 min after injection) | Gd uptake in tumors (ICP-MS) (subcutaneous HeLa tumors; mouse, in vivo) | T1 value after incubation with legumain (legumain) | cellular uptake of Gd in STS-treated versus non-treated cells (HeLa cells) |
| --- | --- | --- | --- | --- | --- | --- | --- | --- | --- | --- | --- | --- | --- |
| CCSSC[C@@H](NC(=O)[C@H](CC(=O)O)NC(=O)[C@@H](NC(=O)[C@H](CCC(=O)O)NC(=O)[C@H](CC(=O)O)NC(C)=O)C(C)C)C(=O)N[C@@H](CCCCNC(=O)CCCCCN1C(=CC=CC=CC2=[N+](CC)c3ccc4c(S(=O)(=O)[O-])cc(S(=O)(=O)O)cc4c3C2(C)C)C(C)(C)c2c1ccc1c(S(=O)(=O)O)cc(S(=O)(=O)O)cc21)C(=O)Nc1ccc2nc(C3=N[C@@H](C(=O)NCCCOc4ccc5nc(C#N)ccc5c4)CS3)sc2c1 [C-SNAF] | 9% | 92% | approximately 10 fold | 23% | 90% | approximately 4 fold | – | – | – | – | – | – | – |
| CCSSCC(NC(=O)C(CC(=O)O)NC(=O)C(NC(=O)C(CCC(=O)O)NC(=O)C(CC(=O)O)NC(C)=O)C(C)C)C(=O)NC(CCCCNC(=O)CN1CCN(CC(=O)[O-])CCN(CC(=O)[O-])CCN(CC(=O)[O-])CC1)C(=O)Nc1ccc2nc(C3=NC(C(=O)NCCCOc4ccc5nc(C#N)ccc5c4)CS3)sc2c1.[Gd+3] (stereo not shown) [probe 15] (Ac-DEVDC(SEt)K(DOTA)[X1]-X2; configuration not given here) | – | – | – | – | – | – | 40 min | 62% | 169% | 77% | higher Gd level in treated tumors | No reduced T1 value | 6.6 fold |
